Literature values in US12390507B1, “Method to provide consistent product batches active components for alkaloids of kratom plants” (priority 2021, dated 2025).

Legend:
α2-adrenergic receptor = conditions: α2 versus α1
α1-adrenergic receptor = conditions: α1 versus α2 adrenergic receptor antagonist

## CC[C@@H]1CN2CCc3c([nH]c4cccc(O)c34)[C@@H]2C[C@@H]1/C(=C\OC)C(=O)OC [9-Hydroxycorynantheidine]
Opioid receptors; compared with mitragynine
  maximum inhibition of electrically stimulated guinea-pig ileum contraction: weaker than that of mitragynine
Opioid receptors; one study, quoted
  effect on electrically stimulated guinea-pig ileum contraction: inhibited
Opioid receptors; with naloxone
  effect of naloxone on the inhibition of guinea-pig ileum contraction: antagonized by naloxone

## COC(=O)[C@H]1[C@H]2C[C@H]3c4[nH]c5ccccc5c4CCN3C[C@H]2CC[C@@H]1O [rauwolscine]
α2-adrenergic receptor
  higher affinity for the α2-adrenergic receptor over the α1-adrenergic: 30 ×

## COC(=O)[C@@H]1[C@H]2C[C@H]3c4[nH]c5ccccc5c4CCN3C[C@@H]2CC[C@@H]1O [yohimbine]
α2-adrenergic receptor
  higher affinity for the α2-adrenergic receptor over the α1-adrenergic: 30 ×

## Corynantheidine
α1-adrenergic receptor
  greater affinity for the α1-adrenergic receptor (over α2-adrenergic receptor): 10 ×
